Here are results for 1 substance from patent US9018188B2, “MicroRNA inhibitors” (Ottawa Hospital Research Institute, priority 2011, dated 2015).

For the assay, the system named is hindlimbs. The assay is described as follows: Thermographic imaging of hindlimb surface temperature. Format: in vivo, mouse. The method, then: Mouse thermographic imaging was performed with a FUR T640 infrared camera with highest sensitivity set to ˜35° C. Control- or miR-133 ASO treated C57BL/6 male mice fed with either a regular diet or a high fat diet were shaved at both of the hindlimbs one day before the imaging. Subject mice were quickly anesthetized under ˜1% isoflurane and thermographic images were taken immediately after the mice were anesthetized (within 2 minutes). Data analysis was performed using FUR QuickReport software with measuring crosses set on the TA muscle areas on lower hindlimbs and the neck areas.

Take “*mA*mUmAmGmCmUmGmGmUmUmGmAmAmGmGmGmGmAmC*mC*mA*mA*mAChl [miR-133 ASO]”: the “surface temperature of treated hindlimbs higher than control hindlimbs” value was found to be 0.9 °C (mice fed with HFD) and 0.7 °C (mice fed with RD).
